Reference: PubChem BioAssay (NCI)
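Compound exposure: 48 hours, 5 concentrations, 96-well plates. At the TGI there is no net growth.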

Assays:
Experiment in all cases: growth of human tumour cells (NCI), 48 h
[1] = system: 786-0 renal
[2] = system: HCC-2998 colon
[3] = system: HCT-116 colon
[4] = system: HL-60(TB) leukemia
[5] = system: HOP-62 NSCLC
[6] = system: LOX IMVI melanoma
[7] = system: MALME-3M melanoma
[8] = system: SK-MEL-5 melanoma
[9] = system: SNB-75 CNS
[10] = system: T-47D breast

N=C1C(=N)c2ccccc2-c2ccccc21.[Cl-].[Ru+2].c1ccc(-c2ccccn2)nc1.c1ccc(-c2ccccn2)nc1
TGI [1]: > 100 µM
TGI [2]: > 100 µM
TGI [3]: > 100 µM
TGI [4]: > 100 µM
TGI [5]: > 100 µM
TGI [6]: > 100 µM
TGI [7]: > 100 µM
TGI [8]: > 100 µM
TGI [9]: > 100 µM

c1ccc(/C(=N/Nc2nc3ccccc3s2)C2CCCCC2)nc1
TGI [1]: 21.9 µM
TGI [2]: 0.0519 µM
TGI [3]: 14.8 µM
TGI [5]: 23.5 µM
TGI [6]: 54.3 µM
TGI [7]: 20.9 µM
TGI [8]: 18.9 µM
TGI [10]: 15.5 µM

Nc1n(CC(=O)c2ccccc2)nc2sc(-c3ccccc3)n[n+]12
TGI [1]: 48.4 µM
TGI [2]: 25 µM
TGI [5]: 52.5 µM
TGI [6]: > 100 µM
TGI [8]: 22 µM
TGI [9]: > 100 µM
TGI [10]: > 100 µM

O=C(Nc1ccc(N2C(=O)CSC2c2ccccc2O)cc1)c1ccc(N2C(=O)CSC2c2ccccc2O)cc1 (configuration not stated)
TGI [1]: > 100 µM
TGI [2]: > 100 µM
TGI [3]: > 100 µM
TGI [5]: > 100 µM
TGI [6]: > 100 µM
TGI [7]: > 100 µM
TGI [8]: > 100 µM
TGI [9]: 82.4 µM
TGI [10]: > 100 µM

CC(=O)NC1C(OCc2ccccc2)OC(CO)C(O)C1OCC(=O)N1CCCC1C(=O)N[C@@H](CCC(=O)NCCCCNc1c2ccccc2nc2cccc([N+](=O)[O-])c12)C(N)=O (some centres not stated)
TGI [1]: > 100 µM
TGI [2]: 52.4 µM
TGI [3]: 64.6 µM
TGI [5]: > 100 µM
TGI [7]: > 100 µM
TGI [9]: 65.8 µM
TGI [10]: > 100 µM

CCNCCNC(=O)c1ccc(I)cc1
TGI [1]: > 100 µM
TGI [2]: > 100 µM
TGI [4]: > 100 µM
TGI [6]: > 100 µM
TGI [8]: > 100 µM
TGI [9]: > 100 µM

Cn1c(=O)c2[nH]c(N/N=N/c3nncs3)nc2n(C)c1=O
TGI [1]: > 100 µM
TGI [2]: > 100 µM
TGI [3]: > 100 µM
TGI [5]: > 100 µM
TGI [6]: > 100 µM
TGI [8]: > 100 µM
TGI [10]: > 100 µM

C[C@H](c1ccccc1)N1C(=O)[C@@H](O)[C@H]1[C@H](CO)OCc1ccccc1
TGI [1]: > 100 µM
TGI [3]: > 100 µM
TGI [5]: > 100 µM
TGI [6]: > 100 µM
TGI [7]: > 100 µM
TGI [8]: > 100 µM
TGI [9]: > 100 µM

COc1ccc([C@H]2[C@H]3COC(=O)[C@H]3C(C#N)=C3Sc4ccccc4N32)cc1
TGI [1]: > 100 µM
TGI [2]: > 100 µM
TGI [3]: > 100 µM
TGI [5]: > 100 µM
TGI [6]: > 62.9 µM
TGI [7]: > 100 µM
TGI [8]: > 57.3 µM
TGI [9]: > 26.7 µM
TGI [10]: > 82.5 µM

NC(=O)Nc1c(Cl)cc(S(N)(=O)=O)cc1Cl
TGI [1]: > 100 µM
TGI [3]: > 100 µM
TGI [4]: > 100 µM
TGI [5]: > 100 µM
TGI [6]: > 100 µM
TGI [7]: > 100 µM
TGI [8]: > 100 µM
TGI [9]: > 100 µM

COc1ccc(N2CC(=O)N(C(=O)COc3ccc(OCC(=O)N4C(=O)CN(c5ccc(OC)cc5)C4=S)cc3)C2=S)cc1
TGI [1]: > 100 µM
TGI [2]: > 100 µM
TGI [3]: 63.3 µM
TGI [7]: > 100 µM
TGI [8]: > 100 µM
TGI [9]: > 100 µM

CC1CC[C@@]2(OC1)OC1C[C@H]3[C@@H]4CC=C5CC(OC6OC(CO)C(OC7OC(CO)C(O)C(OC8OCC(O)C(O)C8O)C7OC7OC(CO)C(OC8OC(C)C(OC9OC(C)C(O)C(O)C9O)C(O)C8O)C(O)C7O)C(O)C6O)CCC5(C)[C@H]4CCC3(C)C1[C@@H]2C (some centres not stated)
TGI [1]: 10.3 µM
TGI [2]: 14.1 µM
TGI [3]: 15.3 µM
TGI [4]: 17.2 µM
TGI [5]: 19 µM
TGI [6]: 17.3 µM
TGI [7]: 20.1 µM
TGI [8]: 15.8 µM
TGI [10]: 20.2 µM
